# Test results from patent publication US20260262643A1, “HERBICIDAL BENZOXAZINES” (FMC CORPORATION, priority 2022, published 2026).
# Tests used:
# barnyardgrass [1] = test: Test C preemergence; format: in vivo, Echinochloa crusgalli; settings: 0 to 100 scale (0 no effect, 100 complete control); for Plant response rating, Barnyardgrass: Preemergence, visual rating after 10 days
# Outline: (§1)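 Soil-applied (pre) and foliar (post, 1–2 leaf, 2–10 cm) sprays; surfactant-containing non-phytotoxic solvent vehicle; loam/sand substrate. Readout: visual % control at 10 d, greenhouse, versus untreated.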
# blackgrass [2] = test: Test C preemergence; format: in vivo, Alopecurus myosuroides; settings: 0 to 100 scale (0 no effect, 100 complete control); for Plant response rating, Blackgrass: Preemergence, visual rating after 10 days
# Outline: as §1
# green foxtail [3] = test: Test C preemergence; format: in vivo, Setaria viridis; settings: 0 to 100 scale (0 no effect, 100 complete control); for Plant response rating, Foxtail, Green: Preemergence, visual rating after 10 days
# Outline: as §1
# kochia [4] = test: Test C preemergence; format: in vivo, Bassia scoparia; settings: 0 to 100 scale (0 no effect, 100 complete control); for Plant response rating, Kochia: Preemergence, visual rating after 10 days
# Outline: as §1
# pigweed, palmer [5] = test: Test C preemergence; format: in vivo, Amaranthus palmeri; settings: 0 to 100 scale (0 no effect, 100 complete control); for Plant response rating, Pigweed, Palmer: Preemergence, visual rating after 10 days
# Outline: as §1
# ragweed [6] = test: Test C preemergence; format: in vivo, Ambrosia artemisiifolia; settings: 0 to 100 scale (0 no effect, 100 complete control); for Plant response rating, Ragweed: Preemergence, visual rating after 10 days
# Outline: as §1
# ryegrass, Italian [7] = test: Test C preemergence; format: in vivo, Lolium multiflorum; settings: 0 to 100 scale (0 no effect, 100 complete control); for Plant response rating, Ryegrass, Italian: Preemergence, visual rating after 10 days
# Outline: as §1
# barnyardgrass [8] = test: Test C postemergence; format: in vivo, Echinochloa crusgalli
# Outline: as §1
# blackgrass [9] = test: Test C postemergence; format: in vivo, Alopecurus myosuroides; settings: 10 days
# Outline: as §1
# green foxtail [10] = test: Test C postemergence; format: in vivo, Setaria viridis; settings: Postemergence, 1000 g ai/ha, 10 days, visual 0 to 100 scale (0 no effect, 100 complete control)
# Outline: as §1
# kochia [11] = test: Test C postemergence; format: in vivo, Bassia scoparia; settings: 10 days
# Outline: as §1
# pigweed, palmer [12] = test: Test C postemergence; format: in vivo, Amaranthus palmeri; settings: Postemergence, 10 days, visual 0 to 100 scale (0 no effect, 100 complete control)
# Outline: as §1
# ragweed [13] = test: Test C postemergence; format: in vivo, Ambrosia artemisiifolia; settings: 10 days
# Outline: as §1
# ryegrass, Italian [14] = test: Test C postemergence; format: in vivo, Lolium multiflorum; settings: 10 days
# Outline: as §1
# galium = test: Test C postemergence; format: in vivo, Galium aparine; settings: 10 days
# Outline: as §1
# horseweed = test: Test C postemergence; format: in vivo, Erigeron canadensis; settings: 10 days
# Outline: as §1
# barnyardgrass [15] = test: Test D flooded paddy test; format: in vivo, Echinochloa crus-galli; settings: 250 g ai/ha, applied to paddy water, visual rating after 13 to 14 days, scale 0 to 100 (0 no effect, 100 complete control)
# Procedure: (§2) Plant species in the flooded paddy test selected from barnyardgrass (Echinochloa crus-galli), ducksalad (Heteranthera limosa), rice (Oryza sativa), and sedge, umbrella (small-flower umbrella sedge, Cyperus difformis) were grown to the 2-leaf stage for testing. At time of treatment, test pots were flooded to 3 cm above the soil surface, treated by application of test compounds directly to the paddy water, and then maintained at that water depth for the duration of the test. Treated plants and controls were maintained in a greenhouse for 13 to 14 days, after which time all species were compared to controls and visually evaluated. Plant response ratings, summarized in Table D, are based on a scale of 0 to 100 where 0 is no effect and 100 is complete control. A dash (-) response means no test result.
# ducksalad = test: Test D flooded paddy test; format: in vivo, Heteranthera limosa; settings: 250 g ai/ha, applied to paddy water, visual rating after 13 to 14 days, scale 0 to 100 (0 no effect, 100 complete control)
# Procedure: as §2
# rice = test: Test D flooded paddy test; format: in vivo, Oryza sativa; settings: 250 g ai/ha, applied to paddy water, visual rating after 13 to 14 days, scale 0 to 100 (0 no effect, 100 complete control)
# Procedure: as §2
# sedge, umbrella = test: Test D flooded paddy test; format: in vivo, Cyperus difformis; settings: 250 g ai/ha, applied to paddy water, visual rating after 13 to 14 days, scale 0 to 100 (0 no effect, 100 complete control)
# Procedure: as §2
# corn [16] = test: Test C preemergence; format: in vivo, Zea mays; settings: 0 to 100 scale (0 no effect, 100 complete control)
# Outline: as §1
# oat, wild [17] = test: Test C preemergence; format: in vivo, Avena fatua; settings: 0 to 100 scale (0 no effect, 100 complete control)
# Outline: as §1
# soybean [18] = test: Test C preemergence; format: in vivo, Glycine max; settings: 0 to 100 scale (0 no effect, 100 complete control)
# Outline: as §1
# wheat [19] = test: Test C preemergence; format: in vivo, Triticum aestivum; settings: 0 to 100 scale (0 no effect, 100 complete control)
# Outline: as §1
# corn [20] = test: Test C postemergence; format: in vivo, Zea mays; settings: 10 days
# Outline: as §1
# oat, wild [21] = test: Test C postemergence; format: in vivo, Avena fatua; settings: 10 days
# Outline: as §1
# soybean [22] = test: Test C postemergence; format: in vivo, Glycine max; settings: 10 days
# Outline: as §1
# wheat [23] = test: Test C postemergence; format: in vivo, Triticum aestivum; settings: 10 days
# Outline: as §1
# [24] = Postemergence, 1000 g ai/ha, visual 0 to 100 scale (0 no effect, 100 complete control)
# [25] = Test C, preemergence, 125 g ai/ha
# [26] = Preemergence, 500 g ai/ha, visual rating after 10 days
# [27] = 125 g ai/ha, postemergence, 0 to 100 scale, 0 no effect, 100 complete control
# [28] = Postemergence, 500 g ai/ha, visual 0 to 100 scale (0 no effect, 100 complete control)
smiles,measurement,setting,value
Cc1cnn(-c2cccc(C(=O)N3C[C@H](C)Oc4c(Cl)cccc43)c2)c1 [Compound 207],"Plant response rating, Barnyardgrass",barnyardgrass [1]; 1000 g ai/ha,90
same,"Plant response rating, Blackgrass",blackgrass [2]; 1000 g ai/ha,20
same,"Plant response rating, Foxtail, Green",green foxtail [3]; 1000 g ai/ha,90
same,"Plant response rating, Kochia",kochia [4]; 1000 g ai/ha,30
same,"Plant response rating, Pigweed, Palmer","pigweed, palmer [5]; 1000 g ai/ha",90
same,"Plant response rating, Ragweed",ragweed [6]; 1000 g ai/ha,0
same,"Plant response rating, Ryegrass, Italian","ryegrass, Italian [7]; 1000 g ai/ha",90
same,"Plant response rating, Barnyardgrass","barnyardgrass [8]; Postemergence, 1000 g ai/ha, 0 to 100 scale, 0 no effect, 100 complete control",30
same,"Plant response rating, Blackgrass",blackgrass [9]; [24],10
same,"Plant response rating, Foxtail, Green",green foxtail [10],10
same,"Plant response rating, Kochia",kochia [11]; [24],20
same,"Plant response rating, Pigweed, Palmer","pigweed, palmer [12]; 1000 g ai/ha",90
same,"Plant response rating, Ragweed",ragweed [13]; [24],10
same,"Plant response rating, Ryegrass, Italian","ryegrass, Italian [14]; [24]",70
same,"Plant response rating, Galium",galium; [24],10
same,"Plant response rating, Horseweed",horseweed; [24],10
same,"Plant response rating, Barnyardgrass (Flood)",barnyardgrass [15],0
same,"Plant response rating, Ducksalad (Flood)",ducksalad,0
same,"Plant response rating, Rice (Flood)",rice,0
same,"Plant response rating, Sedge, Umbrella (Flood)","sedge, umbrella",0
COC[C@H]1CN(C(=O)c2cccc(-n3cnc(C(C)(C)O)n3)c2)c2cccc(Cl)c2O1 [Compound 253],"Plant response rating, Barnyardgrass",barnyardgrass [1]; 500 g ai/ha,60
same,Barnyardgrass plant response rating,barnyardgrass [1]; [25],50
same,"Plant response rating, Blackgrass",blackgrass [2]; 500 g ai/ha,50
same,Blackgrass plant response rating,blackgrass [2]; [25],20
same,"Plant response rating, Corn",corn [16]; [26],10
same,Corn plant response rating,corn [16]; [25],0
same,"Plant response rating, Foxtail, Green",green foxtail [3]; 500 g ai/ha,100
same,"Foxtail, Green plant response rating",green foxtail [3]; [25],80
same,"Plant response rating, Kochia",kochia [4]; 500 g ai/ha,80
same,Kochia plant response rating,kochia [4]; [25],60
same,"Plant response rating, Oat, Wild","oat, wild [17]; [26]",90
same,"Oat, Wild plant response rating","oat, wild [17]; [25]",30
same,"Plant response rating, Pigweed, Palmer","pigweed, palmer [5]; 500 g ai/ha",100
same,"Pigweed, Palmer plant response rating","pigweed, palmer [5]; [25]",90
same,"Plant response rating, Ragweed",ragweed [6]; 500 g ai/ha,80
same,Ragweed plant response rating,ragweed [6]; [25],20
same,"Plant response rating, Ryegrass, Italian","ryegrass, Italian [7]; 500 g ai/ha",60
same,"Ryegrass, Italian plant response rating","ryegrass, Italian [7]; [25]",40
same,"Plant response rating, Soybean",soybean [18]; [26],80
same,Soybean plant response rating,soybean [18]; [25],40
same,"Plant response rating, Wheat",wheat [19]; [26],50
same,Wheat plant response rating,wheat [19]; [25],0
same,"Plant response rating, Barnyardgrass","barnyardgrass [8]; 125 g ai/ha, postemergence, 10 days, 0 to 100 scale, 0 no effect, 100 complete control",20
same,"Plant response rating, Barnyardgrass","barnyardgrass [8]; Postemergence, 500 g ai/ha, 10 days, visual 0 to 100 scale (0 no effect, 100 complete control)",30
same,"Plant response rating, Blackgrass",blackgrass [9]; [27],40
same,"Plant response rating, Blackgrass",blackgrass [9]; [28],80
same,"Plant response rating, Corn",corn [20]; [27],20
same,"Plant response rating, Corn",corn [20]; [28],80
same,"Plant response rating, Kochia",kochia [11]; [27],80
same,"Plant response rating, Kochia",kochia [11]; [28],80
same,"Plant response rating, Oat, Wild","oat, wild [21]; [27]",50
same,"Plant response rating, Oat, Wild","oat, wild [21]; [28]",90
same,"Plant response rating, Pigweed, Palmer","pigweed, palmer [12]; 500 g ai/ha",70
same,"Plant response rating, Ragweed",ragweed [13]; [27],70
same,"Plant response rating, Ragweed",ragweed [13]; [28],70
same,"Plant response rating, Ryegrass, Italian","ryegrass, Italian [14]; [27]",50
same,"Plant response rating, Ryegrass, Italian","ryegrass, Italian [14]; [28]",50
same,"Plant response rating, Soybean",soybean [22]; [27],100
same,"Plant response rating, Soybean",soybean [22]; [28],100
same,"Plant response rating, Wheat",wheat [23]; [27],20
same,"Plant response rating, Wheat",wheat [23]; [28],70
same,"Plant response rating, Galium",galium; [27],100
same,"Plant response rating, Galium",galium; [28],100
same,"Plant response rating, Horseweed",horseweed; [27],0
same,"Plant response rating, Horseweed",horseweed; [28],20
same,"Plant response rating, Barnyardgrass (Flood)",barnyardgrass [15],0
same,"Plant response rating, Ducksalad (Flood)",ducksalad,85
same,"Plant response rating, Rice (Flood)",rice,10
same,"Plant response rating, Sedge, Umbrella (Flood)","sedge, umbrella",70
